# Measurements published in PubChem BioAssay (NCI).
#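 GI50 marks 50% less growth. The concentration for full growth arrest is given as TGI.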
# What was measured:
# Experiment in all cases: NCI anticancer screen, dose series, 384-well format
# 786-0 renal = tested on: 786-0 renal
# A498 renal = tested on: A498 renal
# A549 NSCLC = tested on: A549 NSCLC
# ACHN renal = tested on: ACHN renal
# BT-549 breast = tested on: BT-549 breast
# CAKI-1 renal = tested on: CAKI-1 renal
# CCRF-CEM leukemia = tested on: CCRF-CEM leukemia
# DU-145 prostate = tested on: DU-145 prostate
# EKVX NSCLC = tested on: EKVX NSCLC
# HCT-116 colon = tested on: HCT-116 colon
# HCT-15 colon = tested on: HCT-15 colon
# HL-60(TB) leukemia = tested on: HL-60(TB) leukemia
# HOP-62 NSCLC = tested on: HOP-62 NSCLC
# HOP-92 NSCLC = tested on: HOP-92 NSCLC
# HS 578T breast = tested on: HS 578T breast
# HT29 colon = tested on: HT29 colon
# IGROV1 ovarian = tested on: IGROV1 ovarian
# K-562 leukemia = tested on: K-562 leukemia
# KM12 colon = tested on: KM12 colon
# M14 melanoma = tested on: M14 melanoma
# MALME-3M melanoma = tested on: MALME-3M melanoma
# MCF7 breast = tested on: MCF7 breast
# MDA-MB-231 breast = tested on: MDA-MB-231 breast
# MDA-MB-435 melanoma = tested on: MDA-MB-435 melanoma
# MDA-MB-468 breast = tested on: MDA-MB-468 breast
# NCI-H226 lung = tested on: NCI-H226 lung
# NCI-H23 lung = tested on: NCI-H23 lung
# NCI-H322M lung = tested on: NCI-H322M lung
# NCI-H522 lung = tested on: NCI-H522 lung
# NCI/ADR-RES ovarian = tested on: NCI/ADR-RES ovarian
# OVCAR-3 ovarian = tested on: OVCAR-3 ovarian
# OVCAR-4 ovarian = tested on: OVCAR-4 ovarian
# OVCAR-5 ovarian = tested on: OVCAR-5 ovarian
# OVCAR-8 ovarian = tested on: OVCAR-8 ovarian
# PC-3 prostate = tested on: PC-3 prostate
# RPMI-8226 leukemia = tested on: RPMI-8226 leukemia
# SF-268 CNS = tested on: SF-268 CNS
# SF-295 CNS = tested on: SF-295 CNS
# SF-539 CNS = tested on: SF-539 CNS
# SK-MEL-2 melanoma = tested on: SK-MEL-2 melanoma
# SK-MEL-28 melanoma = tested on: SK-MEL-28 melanoma
# SK-OV-3 ovarian = tested on: SK-OV-3 ovarian
# SN12C renal = tested on: SN12C renal
# SNB-19 CNS = tested on: SNB-19 CNS
# SNB-75 CNS = tested on: SNB-75 CNS
# SW-620 colon = tested on: SW-620 colon
# T-47D breast = tested on: T-47D breast
# TK-10 renal = tested on: TK-10 renal
# U251 glioblastoma = tested on: U251 glioblastoma
# UACC-257 melanoma = tested on: UACC-257 melanoma
# UACC-62 melanoma = tested on: UACC-62 melanoma
# UO-31 renal = tested on: UO-31 renal
structure (smiles),measurement,setting,value
CC[C@]1(O)C[C@H]2CN(CCc3c([nH]c4ccccc34)[C@@](C(=O)OC)(c3cc4c(cc3OC)N(C)[C@H]3[C@@](O)(C(=O)OC)[C@H](OC(C)=O)[C@]5(CC)C=CCN6CC[C@]43[C@@H]65)C2)C1,GI50,786-0 renal,< 0.0191 µM
same,TGI,786-0 renal,4.13 µM
same,GI50,A498 renal,< 0.0199 µM
same,GI50,A549 NSCLC,< 0.0212 µM
same,TGI,A549 NSCLC,14.1 µM
same,TGI,ACHN renal,6.08 µM
same,GI50,BT-549 breast,< 0.0162 µM
same,TGI,BT-549 breast,0.0426 µM
same,GI50,CAKI-1 renal,< 0.0226 µM
same,TGI,CAKI-1 renal,3.88 µM
same,GI50,CCRF-CEM leukemia,< 0.0136 µM
same,TGI,CCRF-CEM leukemia,< 0.0182 µM
same,GI50,DU-145 prostate,< 0.0187 µM
same,GI50,EKVX NSCLC,0.0304 µM
same,TGI,EKVX NSCLC,11.9 µM
same,GI50,HCT-116 colon,< 0.0178 µM
same,TGI,HCT-116 colon,0.595 µM
same,GI50,HCT-15 colon,0.052 µM
same,TGI,HCT-15 colon,10.4 µM
same,TGI,HL-60(TB) leukemia,< 0.0111 µM
same,GI50,HOP-62 NSCLC,< 0.0175 µM
same,TGI,HOP-62 NSCLC,1.25 µM
same,GI50,HOP-92 NSCLC,0.0664 µM
same,TGI,HOP-92 NSCLC,8.39 µM
same,GI50,HS 578T breast,< 0.0136 µM
same,TGI,HS 578T breast,< 0.0208 µM
same,GI50,HT29 colon,0.0315 µM
same,TGI,HT29 colon,10.7 µM
same,GI50,IGROV1 ovarian,< 0.039 µM
same,TGI,IGROV1 ovarian,4.4 µM
same,TGI,K-562 leukemia,< 0.0188 µM
same,GI50,KM12 colon,0.0331 µM
same,TGI,KM12 colon,13.8 µM
same,GI50,M14 melanoma,0.0227 µM
same,TGI,M14 melanoma,13.2 µM
same,GI50,MALME-3M melanoma,< 0.0238 µM
same,TGI,MALME-3M melanoma,16.4 µM
same,GI50,MCF7 breast,< 0.0191 µM
same,TGI,MCF7 breast,3.17 µM
same,GI50,MDA-MB-231 breast,< 0.0205 µM
same,TGI,MDA-MB-231 breast,8.4 µM
same,GI50,MDA-MB-435 melanoma,< 0.0137 µM
same,TGI,MDA-MB-435 melanoma,< 0.0211 µM
same,GI50,MDA-MB-468 breast,< 0.0149 µM
same,TGI,MDA-MB-468 breast,< 0.0207 µM
same,GI50,NCI-H226 lung,< 0.0263 µM
same,TGI,NCI-H226 lung,13 µM
same,GI50,NCI-H23 lung,0.0258 µM
same,TGI,NCI-H23 lung,0.0796 µM
same,GI50,NCI-H322M lung,< 0.0245 µM
same,TGI,NCI-H322M lung,20.3 µM
same,GI50,NCI-H522 lung,< 0.0141 µM
same,TGI,NCI-H522 lung,< 0.0196 µM
same,GI50,NCI/ADR-RES ovarian,0.454 µM
same,TGI,NCI/ADR-RES ovarian,1.02 µM
same,GI50,OVCAR-3 ovarian,< 0.0151 µM
same,TGI,OVCAR-3 ovarian,< 0.0265 µM
same,GI50,OVCAR-4 ovarian,0.357 µM
same,TGI,OVCAR-4 ovarian,14.7 µM
same,GI50,OVCAR-5 ovarian,< 0.0211 µM
same,TGI,OVCAR-5 ovarian,16.8 µM
same,GI50,OVCAR-8 ovarian,< 0.0164 µM
same,TGI,OVCAR-8 ovarian,< 0.0284 µM
same,GI50,PC-3 prostate,< 0.0195 µM
same,TGI,PC-3 prostate,11.8 µM
same,GI50,RPMI-8226 leukemia,< 0.0116 µM
same,TGI,RPMI-8226 leukemia,< 0.0168 µM
same,GI50,SF-268 CNS,< 0.0203 µM
same,TGI,SF-268 CNS,4.86 µM
same,GI50,SF-295 CNS,< 0.0148 µM
same,TGI,SF-295 CNS,< 0.0226 µM
same,GI50,SF-539 CNS,< 0.0143 µM
same,TGI,SF-539 CNS,< 0.0215 µM
same,GI50,SK-MEL-2 melanoma,< 0.0162 µM
same,TGI,SK-MEL-2 melanoma,< 0.0254 µM
same,GI50,SK-MEL-28 melanoma,< 0.039 µM
same,TGI,SK-MEL-28 melanoma,14.6 µM
same,GI50,SK-OV-3 ovarian,< 0.0206 µM
same,TGI,SK-OV-3 ovarian,0.904 µM
same,GI50,SN12C renal,< 0.025 µM
same,TGI,SN12C renal,14.7 µM
same,GI50,SNB-19 CNS,< 0.0216 µM
same,TGI,SNB-19 CNS,2.3 µM
same,GI50,SNB-75 CNS,< 0.0206 µM
same,GI50,SW-620 colon,< 0.0202 µM
same,TGI,SW-620 colon,16.3 µM
same,GI50,T-47D breast,0.544 µM
same,TGI,T-47D breast,19.9 µM
same,GI50,TK-10 renal,< 0.0269 µM
same,TGI,TK-10 renal,14.6 µM
same,GI50,U251 glioblastoma,< 0.0177 µM
same,GI50,UACC-257 melanoma,0.412 µM
same,TGI,UACC-257 melanoma,10.6 µM
same,GI50,UACC-62 melanoma,< 0.0171 µM
same,GI50,UO-31 renal,0.157 µM
same,TGI,UO-31 renal,7.78 µM
